Patent US20250282754A1, “BICYCLIC COMPOUNDS AND THEIR USE AS PEST CONTROL AGENTS” (Pl Industries Ltd., priority 2022, published 2025)

Experiments:
[1] = tested on: Bemisia tabaci; test: Bemisia tabaci leaf dip test (brinjal leaves, whitefly adults); format: in vivo; conditions: foliar, dead and moribund whitefly adults 72 h after release, compared to untreated controls, read-out: percent mortality
Procedure: The leaf dip method was used for testing, wherein the required quantity of the compound was weighed and dissolved in a tube containing a solvent solution. The tube was put on a vortex at 2000 rpm for proper mixing and then diluted with a 0.01% Triton-X solution to the desired test concentration. Brinjal leaves were dipped in the compound solution for 10 seconds; shade dried for 20 min and then placed, with the abaxial side of the leaf up, on 4 ml of a solidified 1% agar-agar solution in respective container caps. Known numbers of freshly emerged whitefly adults were collected, using a modified aspirator, and released into a perforated container in which the cap containing the treated leaf was placed. The containers were kept in a plant growth chamber at a temperature of 25° C. and relative humidity of 70%. Observations on dead, moribund and alive adults were recorded 72 h after the release. Percent mortality was calculated by combining dead and moribund adults and comparing the result to the one of the untreated controls. The compounds 1 9 11 18 25 28 29 30 31

[2] = tested on: Nilaparvata lugens; test: Nilaparvata lugens seedling dip test (paddy seedlings, third instar nymphs); format: in vivo; conditions: dead and moribund third instar nymphs 72 h after release, compared to untreated controls, read-out: percent mortality
Procedure: The seedling dip method was used for testing, wherein the required quantity of the compound was weighed and dissolved in a tube containing a solvent solution. The tube was put on a vortex at 2000 rpm for proper mixing and then diluted with a 0.01% Triton-X solution to the desired test concentration. Paddy seedlings were dipped in the compound solution for 10 seconds, shade dried for 20 min and then the seedlings were placed in glass test tubes with the roots kept in water. 15 third instar nymphs of Nilaparvata lugens were released into each test tube and the tubes were kept in a plant growth chamber at a temperature of 25° C. and relative humidity of 75%. Observations on dead, moribund and alive nymphs were recorded 72 h after the release. Percent mortality was calculated by combining dead and moribund nymphs and comparing the result to the one of the untreated controls. The compounds

## CS(C)(=O)=Nc1ccc2nn(-c3cncnc3)cc2c1 [Compound 9]
[1]
  mortality at 300 ppm: ≥ 70%
[2]
  mortality at 300 ppm: ≥ 70%

## CCS(=O)(CC)=Nc1ccc2nn(-c3cncnc3)cc2c1 [Compound 11]
[1]
  mortality at 300 ppm: ≥ 70%
[2]
  mortality at 300 ppm: ≥ 70%

## CS(=O)(=Nc1ccc2nn(-c3cccnc3)cc2c1)c1cccnc1 (centres unmarked) [Compound 30]
[1]
  mortality at 300 ppm: ≥ 70%
[2]
  mortality at 300 ppm: ≥ 70%

## CCCCCS(C)(=O)=Nc1ccc2nn(-c3cncnc3)cc2c1 (centres unmarked) [Compound 33]
[1]
  mortality at 300 ppm: ≥ 70%
[2]
  mortality at 300 ppm: ≥ 70%

## CC(C)S(=O)(=Nc1ccc2nn(-c3cccnc3)cc2c1)c1ccc(F)cc1 (centres unmarked) [Compound 38]
[1]
  mortality at 300 ppm: ≥ 70%
[2]
  mortality at 300 ppm: ≥ 70%

## Cc1ccc(S(C)(=O)=Nc2ccc3nn(-c4cncc(F)c4)cc3c2)cc1 (centres unmarked) [Compound 51]
[2]
  mortality at 300 ppm: ≥ 70%

## CS(C)(=O)=Nc1cccc2nn(-c3cccnc3)cc12 [Compound 72]
[1]
  mortality at 300 ppm: ≥ 70%
[2]
  mortality at 300 ppm: ≥ 70%

## CCCS(=O)(CCC)=Nc1cccc2nn(-c3cccnc3)cc12 [Compound 78]
[1]
  mortality at 300 ppm: ≥ 70%
[2]
  mortality at 300 ppm: ≥ 70%

## CS(C)(=O)=Nc1cccc2nn(-c3cncc(F)c3)cc12 [Compound 87]
[1]
  mortality at 300 ppm: ≥ 70%
[2]
  mortality at 300 ppm: ≥ 70%

## Cc1ccc(S(=O)(=Nc2ccc3nn(-c4cccnc4)cc3c2)N(C)C)cc1 (centres unmarked) [Compound 93, N,N,4-trimethyl-N′-(2-(pyridin-3-yl)-2H-indazol-5-yl)benzenesulfonimidamide]
[1]
  mortality at 300 ppm: ≥ 70%
[2]
  mortality at 300 ppm: ≥ 70%

## CC(C)S(=O)(CCC(F)(F)F)=Nc1cccc2nn(-c3cncc(F)c3)cc12 (centres unmarked) [Compound 104]
[1]
  mortality at 300 ppm: ≥ 70%
[2]
  mortality at 300 ppm: ≥ 70%

## CCS(=O)(=NC(=O)c1ccc2nn(-c3cccnc3)cc2c1)C(C)C (centres unmarked) [Compound 105, N-(ethyl(isopropyl)(oxo)-λ^6-sulfaneylidene)-2-(pyridin-3-yl)-2H-indazole-5-carboxamide]
[2]
  mortality at 300 ppm: ≥ 70%

## COc1nn(-c2ccc3nn(-c4cncc(C)c4)cc3c2)c(=O)n1C [Compound 111, 5-methoxy-4-methyl-2-(2-(5-methylpyridin-3-yl)-2H-indazol-5-yl)-2,4-dihydro-3H-1,2,4-triazol-3-one]
[2]
  mortality at 300 ppm: ≥ 70%

## COc1nn(-c2ccc3nn(-c4cccnc4C)cc3c2)c(=O)n1C [Compound 113, 5-methoxy-4-methyl-2-(2-(2-methylpyridin-3-yl)-2H-indazol-5-yl)-2,4-dihydro-3H-1,2,4-triazol-3-one]
[2]
  mortality at 300 ppm: ≥ 70%

## COc1nn(-c2ccc3nn(-c4cnccc4C)cc3c2)c(=O)n1C [Compound 114, 5-methoxy-4-methyl-2-(2-(4-methylpyridin-3-yl)-2H-indazol-5-yl)-2,4-dihydro-3H-1,2,4-triazol-3-one]
[2]
  mortality at 300 ppm: ≥ 70%

## COc1nn(-c2ccc3nn(-c4ccc(C)nc4)cc3c2)c(=O)n1C [Compound 115, 5-methoxy-4-methyl-2-(2-(6-methylpyridin-3-yl)-2H-indazol-5-yl)-2,4-dihydro-3H-1,2,4-triazol-3-one]
[2]
  mortality at 300 ppm: ≥ 70%

## COc1nn(-c2cccc3nn(-c4cccnc4)cc23)c(=O)n1C [Compound 125, 5-methoxy-4-methyl-2-(2-(pyridin-3-yl)-2H-indazol-4-yl)-2,4-dihydro-3H-1,2,4-triazol-3-one]
[2]
  mortality at 300 ppm: ≥ 70%

## COc1nn(-c2ccc3nn(-c4cccnc4)cc3c2)c(=O)n1Cc1cccc(F)c1 [Compound 126, 4-(3-fluorobenzyl)-5-methoxy-2-(2-(pyridin-3-yl)-2H-indazol-5-yl)-2,4-dihydro-3H-1,2,4-triazol-3-one]
[1]
  mortality at 300 ppm: ≥ 70%
[2]
  mortality at 300 ppm: ≥ 70%

## COc1nn(-c2ccc3nn(-c4cccnc4)cc3c2)c(=O)n1C1CC1 [Compound 127, 4-cyclopropyl-5-methoxy-2-(2-(pyridin-3-yl)-2H-indazol-5-yl)-2,4-dihydro-3H-1,2,4-triazol-3-one]
[2]
  mortality at 300 ppm: ≥ 70%

## CS(=O)(=Nc1cnc2nn(-c3cccnc3)cc2c1)c1ncccc1F (centres unmarked) [Compound 152]
[2]
  mortality at 300 ppm: ≥ 70%

## CS(=O)(=Nc1cnc2nn(-c3cccnc3)cc2c1)c1cccnc1Cl (centres unmarked) [Compound 153]
[2]
  mortality at 300 ppm: ≥ 70%

## CC(C)CS(=O)(CC(C)C)=Nc1ccc2nn(-c3cncnc3)c(Cl)c2c1 [Compound 181]
[2]
  mortality at 300 ppm: ≥ 70%

## CCCCS(=O)(CC)=Nc1ccc2nn(-c3cncc(F)c3)c(Cl)c2c1 (centres unmarked) [Compound 194]
[2]
  mortality at 300 ppm: ≥ 70%

## CS(C)(=O)=Nc1ccc(Cl)c2nn(-c3cncc(F)c3)cc12 [Compound 202]
[2]
  mortality at 300 ppm: ≥ 70%

## CC(C)S(C)(=O)=Nc1ccc(Cl)c2nn(-c3cncc(F)c3)cc12 (centres unmarked) [Compound 206]
[2]
  mortality at 300 ppm: ≥ 70%

## CCOc1nn(-c2cccc3nn(-c4cccnc4)cc23)c(=O)n1Cc1ccc(OC(F)(F)F)cc1 [Compound 331, 5-ethoxy-2-(2-(pyridin-3-yl)-2H-indazol-4-yl)-4-(4-(trifluoromethoxy)benzyl)-2,4-dihydro-3H-1,2,4-triazol-3-one]
[2]
  mortality at 300 ppm: ≥ 70%

## CCOc1nn(-c2cccc3nn(-c4cccnc4)cc23)c(=O)n1Cc1ccc(F)cc1 [Compound 343, 5-ethoxy-4-(4-fluorobenzyl)-2-(2-(pyridin-3-yl)-2H-indazol-4-yl)-2,4-dihydro-3H-1,2,4-triazol-3-one]
[2]
  mortality at 300 ppm: ≥ 70%

## COc1nn(-c2ccc3nn(-c4cccnc4)c(Cl)c3c2)c(=O)n1C [Compound 347, 2-(3-chloro-2-(pyridin-3-yl)-2H-indazol-5-yl)-5-methoxy-4-methyl-2,4-dihydro-3H-1,2,4-triazol-3-one]
[2]
  mortality at 300 ppm: ≥ 70%

## COc1nn(-c2ccc3nn(-c4cncc(F)c4)cc3c2)c(=O)n1Cc1ccccc1F [Compound 355, 4-(2-fluorobenzyl)-2-(2-(5-fluoropyridin-3-yl)-2H-indazol-5-yl)-5-methoxy-2,4-dihydro-3H-1,2,4-triazol-3-one]
[1]
  mortality at 300 ppm: ≥ 70%
[2]
  mortality at 300 ppm: ≥ 70%

## COc1nn(-c2cccc3nn(-c4cccnc4)cc23)c(=O)n1Cc1ccccc1F [Compound 356, 4-(2-fluorobenzyl)-5-methoxy-2-(2-(pyridin-3-yl)-2H-indazol-4-yl)-2,4-dihydro-3H-1,2,4-triazol-3-one]
[2]
  mortality at 300 ppm: ≥ 70%

## COc1nn(-c2cccc3nn(-c4cncnc4)cc23)c(=O)n1Cc1ccccc1F [Compound 357, 4-(2-fluorobenzyl)-5-methoxy-2-(2-(pyrimidin-5-yl)-2H-indazol-4-yl)-2,4-dihydro-3H-1,2,4-triazol-3-one]
[2]
  mortality at 300 ppm: ≥ 70%

## CCOc1nn(-c2ccc3nn(-c4cccnc4)cc3c2)c(=O)n1Cc1ccccc1F [Compound 358, 5-ethoxy-4-(2-fluorobenzyl)-2-(2-(pyridin-3-yl)-2H-indazol-5-yl)-2,4-dihydro-3H-1,2,4-triazol-3-one]
[1]
  mortality at 300 ppm: ≥ 70%
[2]
  mortality at 300 ppm: ≥ 70%

## CCOc1nn(-c2cccc3nn(-c4cccnc4)cc23)c(=O)n1Cc1ccccc1F [Compound 359, 5-ethoxy-4-(2-fluorobenzyl)-2-(2-(pyridin-3-yl)-2H-indazol-4-yl)-2,4-dihydro-3H-1,2,4-triazol-3-one]
[2]
  mortality at 300 ppm: ≥ 70%

## CCOc1nn(-c2cccc3nn(-c4cncnc4)cc23)c(=O)n1Cc1ccccc1F [Compound 360, 5-ethoxy-4-(2-fluorobenzyl)-2-(2-(pyrimidin-5-yl)-2H-indazol-4-yl)-2,4-dihydro-3H-1,2,4-triazol-3-one]
[2]
  mortality at 300 ppm: ≥ 70%

## COc1nn(-c2ccc3nn(-c4cccnc4)cc3c2)c(=O)n1Cc1ccccc1Cl [Compound 367, 4-(2-chlorobenzyl)-5-methoxy-2-(2-(pyridin-3-yl)-2H-indazol-5-yl)-2,4-dihydro-3H-1,2,4-triazol-3-one]
[2]
  mortality at 300 ppm: ≥ 70%

## CC(C)S(=O)(=NC#N)c1ccc2nn(-c3cccnc3)cc2c1 (centres unmarked) [Compound 392, N-(isopropyl(oxo)(2-(pyridin-3-yl)-2H-indazol-5-yl)-λ^6-sulfaneylidene)cyanamide]
[2]
  mortality at 300 ppm: ≥ 70%

## CC(C)S(=O)(=NC(=O)C(F)(F)F)c1ccc2nn(-c3cccnc3)cc2c1 (centres unmarked) [Compound 394]
[2]
  mortality at 300 ppm: ≥ 70%

## CC(C)S(=O)(=NC(=O)C(F)F)c1ccc2nn(-c3cccnc3)cc2c1 (centres unmarked) [Compound 396]
[2]
  mortality at 300 ppm: ≥ 70%

## CC(=O)N=S(=O)(c1cnc2nn(-c3cncc(F)c3)cc2c1)C(C)C (centres unmarked) [Compound 402]
[2]
  mortality at 300 ppm: ≥ 70%

## CC(C)S(=O)(=NC(=O)C(F)(F)F)c1ccc2nn(-c3cncnc3)cc2c1 (centres unmarked) [Compound 417]
[2]
  mortality at 300 ppm: ≥ 70%

## N=S(=O)(CC1CC1)c1ccc2nn(-c3cccnc3)c(Cl)c2c1 (centres unmarked) [Compound 454, (3-chloro-2-(pyridin-3-yl)-2H-indazol-5-yl)(cyclopropylmethyl)(imino)-λ^6-sulfanone]
[2]
  mortality at 300 ppm: ≥ 70%

## CCS(=O)(=Nc1ccnc(C)c1)c1ccc2nn(-c3cncc(F)c3)cc2c1 (centres unmarked) [Compound 464]
[2]
  mortality at 300 ppm: ≥ 70%

## CCN=S(=O)(CC1CCC1)c1ccc2nn(-c3cncc(F)c3)cc2c1 (centres unmarked) [Compound 471, (cyclobutylmethyl)(ethylimino)(2-(5-fluoropyridin-3-yl)-2H-indazol-5-yl)-λ^6-sulfanone]
[2]
  mortality at 300 ppm: ≥ 70%
